Data from PubChem BioAssay AID248 (DTP/NCI, 2004).
Several values for one entry are separate records, joined by “and”; a condition that tells them apart may be missing. Equal values may be shown once. Inconclusive results and toxic doses are left out. Cut-off read from the data, not from the text of the source: active = T/C of 150% or more; inactive = T/C below 125%.

Tested on: L1210 leukemia ip in BDF1 mice, survival T/C
Assay: NCI In Vivo Anticancer Drug Screen. Data for tumor model L1210 Leukemia (intraperitoneal) in B6D2F1 (BDF1) mice
Conditions: endpoint: mean survival time, higher = longer survival
Outline: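 Read-out is survival time, reported as the treated-group measurement over the vehicle-control measurement.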

[1] = dose: 100.0 mg/kg/injection, schedule: Q04DX003 (ip), vehicle: Klucel (hydroxypropylcellulose) (HPC)
[2] = dose: 200.0 mg/kg/injection, schedule: Q04DX003 (ip), vehicle: Klucel (hydroxypropylcellulose) (HPC)
[3] = dose: 400.0 mg/kg/injection, schedule: Q04DX003 (ip), vehicle: Klucel (hydroxypropylcellulose) (HPC)
[4] = dose: 100.0 mg/kg/injection, schedule: Q04DX002 (ip), vehicle: Klucel (hydroxypropylcellulose) (HPC)
[5] = dose: 200.0 mg/kg/injection, schedule: Q04DX002 (ip), vehicle: Klucel (hydroxypropylcellulose) (HPC)
[6] = dose: 100.0 mg/kg/injection, schedule: Q04DX002 (ip), vehicle: saline with Tween-80
[7] = dose: 200.0 mg/kg/injection, schedule: Q04DX002 (ip), vehicle: saline with Tween-80
[8] = dose: 400.0 mg/kg/injection, schedule: Q04DX002 (ip), vehicle: saline with Tween-80
[9] = dose: 100.0 mg/kg/injection, schedule: Q01DX009 (ip), vehicle: Klucel (hydroxypropylcellulose) (HPC)
[10] = dose: 200.0 mg/kg/injection, schedule: Q01DX009 (ip), vehicle: Klucel (hydroxypropylcellulose) (HPC)
[11] = dose: 400.0 mg/kg/injection, schedule: Q01DX009 (ip), vehicle: Klucel (hydroxypropylcellulose) (HPC)
[12] = dose: 400.0 mg/kg/injection, schedule: Q04DX002 (ip), vehicle: Klucel (hydroxypropylcellulose) (HPC)
[13] = dose: 100.0 mg/kg/injection, schedule: Q04DX003 (ip), vehicle: saline with Tween-80
[14] = dose: 200.0 mg/kg/injection, schedule: Q04DX003 (ip), vehicle: saline with Tween-80
[15] = dose: 100.0 mg/kg/injection, schedule: Q01DX001 (ip), vehicle: saline with Tween-80
[16] = dose: 200.0 mg/kg/injection, schedule: Q01DX001 (ip), vehicle: saline with Tween-80
[17] = dose: 400.0 mg/kg/injection, schedule: Q04DX003 (ip), vehicle: saline with Tween-80

Measured: T/C

c1ccc(Oc2ccccn2)cc1
inactive: dose: 50.0 mg/kg/injection, schedule: Q04DX003 (ip), vehicle: Klucel (hydroxypropylcellulose) (HPC) 91 % of control | [1] 94 % of control | [2] 94 % of control | [3] 97 % of control

Oc1ccc(O)c(-c2cc3c(O)ccc(O)c3[nH]2)c1
inactive: dose: 25.0 mg/kg/injection, schedule: Q04DX002 (ip), vehicle: Klucel (hydroxypropylcellulose) (HPC) 104 % of control | dose: 50.0 mg/kg/injection, schedule: Q04DX002 (ip), vehicle: Klucel (hydroxypropylcellulose) (HPC) 93 % of control | [4] 104 % of control | [5] 96 % of control

CCC(CCC(C)C1CCC2C3CC=C4CC(OC(=O)Nc5ccc(Cl)cc5)CCC4(C)C3CCC12C)C(C)C (stereo not given)
inactive: [6] 91 % of control | [7] 97 % of control | [8] 94 % of control

Cc1ccc(Nc2ccc(Nc3ccc(CCO)cc3)c3c2C(=O)c2ccccc2C3=O)cc1
inactive: [9] 96 % of control | [10] 100 % of control | [11] 89 % of control

OC1C2C3CCC(C3)C2C(O)C2C3CCC(C3)C12 (stereo not given)
inactive: dose: 12.5 mg/kg/injection, schedule: Q01DX009 (ip), vehicle: saline with Tween-80 101 % of control | dose: 25.0 mg/kg/injection, schedule: Q01DX009 (ip), vehicle: saline with Tween-80 101 % of control

O=[N+]([O-])/C=C/c1ccc(O)cc1
inactive: dose: 50.0 mg/kg/injection, schedule: Q01DX015 (ip), vehicle: saline 97 % of control | dose: 50.0 mg/kg/injection, schedule: Q04DX003 (ip), vehicle: acetone 96 % of control

CCOC(=O)Nc1ccc(Cl)cc1
inactive: [4] 89 % of control | [5] 108 % of control | [12] 108 % of control

COc1ccc(-c2nc(N)ncc2CSC)cc1
inactive: [13] 101 % of control | [14] 86 % of control

COC(OC)c1cc(=O)[nH]c(=S)n1Cl
inactive: [9] 86 % of control | [1] 102 % of control | [10] 91 % of control | [2] 107 % of control | [11] 91 % of control | [3] 105 % of control

Cc1ccc(S(=O)(=O)N/N=C2/CC3CCC(C)(C2)C3)cc1 (stereo not given)
inactive: dose: 12.5 mg/kg/injection, schedule: Q04DX003 (ip), vehicle: saline with Tween-80 100 % of control | dose: 25.0 mg/kg/injection, schedule: Q04DX003 (ip), vehicle: saline with Tween-80 98 % of control | dose: 50.0 mg/kg/injection, schedule: Q04DX003 (ip), vehicle: saline with Tween-80 93 % of control

COc1ccc(F)cc1CC#N
inactive: [4] 98 % of control | [5] 98 % of control

COc1cc(C=O)ccc1OC(=O)Nc1cc(Cl)ccc1C
inactive: [15] 92 % of control | dose: 100.0 mg/kg/injection, schedule: Q01DX009 (ip), vehicle: saline with Tween-80 94 % of control and 97 % of control | [6] 95 % of control and 88 % of control | [13] 97 % of control | [16] 88 % of control | dose: 200.0 mg/kg/injection, schedule: Q01DX009 (ip), vehicle: saline with Tween-80 106 % of control and 115 % of control | [7] 95 % of control and 98 % of control | [14] 95 % of control | dose: 400.0 mg/kg/injection, schedule: Q01DX001 (ip), vehicle: saline with Tween-80 97 % of control | dose: 400.0 mg/kg/injection, schedule: Q01DX009 (ip), vehicle: saline with Tween-80 105 % of control and 90 % of control | [8] 90 % of control and 91 % of control | [17] 103 % of control

COc1cccc(/C=N\NC(=O)CCCC(=O)N/N=C/c2cccc(OC)c2OC)c1OC
inactive: dose: 50.0 mg/kg/injection, schedule: Q01DX001 (ip), vehicle: other 91 % of control | dose: 100.0 mg/kg/injection, schedule: Q01DX001 (ip), vehicle: other 91 % of control | dose: 200.0 mg/kg/injection, schedule: Q01DX001 (ip), vehicle: other 91 % of control | dose: 400.0 mg/kg/injection, schedule: Q01DX001 (ip), vehicle: other 91 % of control

CNc1ncnc2c1c(Br)cn2C1OC(CO)C(O)C1O (stereo not given)
inactive: dose: 5.0 mg/kg/injection, schedule: Q01DX001 (ip), vehicle: saline 104 % of control | dose: 10.0 mg/kg/injection, schedule: Q01DX001 (ip), vehicle: saline 104 % of control | dose: 20.0 mg/kg/injection, schedule: Q01DX001 (ip), vehicle: saline 104 % of control

NC1CC2C=CCC(C1)C2 (stereo not given)
inactive: dose: 100.0 mg/kg/injection, schedule: Q01DX001 (ip), vehicle: saline 95 % of control | dose: 200.0 mg/kg/injection, schedule: Q01DX001 (ip), vehicle: saline 94 % of control

O=C(O)c1ccc(Nc2ccccc2)cc1
inactive: [13] 103 % of control | [14] 90 % of control | [17] 90 % of control

CC(C)(C)NC(=O)C(Cl)Cl
inactive: [15] 88 % of control | [16] 98 % of control

NC(N)=N/N=C/c1cccnc1
inactive: dose: 15.0 mg/kg/injection, schedule: Q01DX Z (oral), vehicle: saline 97 % of control | dose: 30.0 mg/kg/injection, schedule: Q01DX Z (oral), vehicle: saline 97 % of control | dose: 60.0 mg/kg/injection, schedule: Q01DX Z (oral), vehicle: saline 97 % of control and 100 % of control | dose: 120.0 mg/kg/injection, schedule: Q01DX Z (oral), vehicle: saline 96 % of control and 107 % of control | dose: 240.0 mg/kg/injection, schedule: Q01DX Z (oral), vehicle: saline 94 % of control | dose: 480.0 mg/kg/injection, schedule: Q01DX Z (oral), vehicle: saline 89 % of control

O=C(CN1CCCCC1)c1ccc2oc3ccccc3c2c1
inactive: [1] 96 % of control | [2] 96 % of control | [3] 87 % of control

CNC(=S)N/N=C(\C=N\NC(=S)NC)c1ccc(C)cc1
inactive: [4] 106 % of control | [5] 100 % of control | [12] 103 % of control

COc1ccc(N=NN(C)C(=O)c2ccccc2)cc1
inactive: dose: 50.0 mg/kg/injection, schedule: Q01DX009 (ip), vehicle: Klucel (hydroxypropylcellulose) (HPC) 108 % of control | dose: 75.0 mg/kg/injection, schedule: Q01DX001 (ip), vehicle: Klucel (hydroxypropylcellulose) (HPC) 112 % of control | [9] 120 % of control | dose: 150.0 mg/kg/injection, schedule: Q01DX001 (ip), vehicle: Klucel (hydroxypropylcellulose) (HPC) 111 % of control | dose: 300.0 mg/kg/injection, schedule: Q01DX001 (ip), vehicle: Klucel (hydroxypropylcellulose) (HPC) 107 % of control

CC(=O)OCC1OC(OC2CCCc3c(O)c4c(c(O)c32)C(=O)c2ccccc2C4=O)C(OC(C)=O)C(OC(C)=O)C1OC(C)=O (stereo not given)
inactive: dose: 40.0 mg/kg/injection, schedule: Q01DX001 (ip), vehicle: saline 86 % of control | dose: 80.0 mg/kg/injection, schedule: Q01DX001 (ip), vehicle: saline 92 % of control

CC(=O)Nc1ccc(S(=O)(=O)F)cc1[N+](=O)[O-]
inactive: dose: 100.0 mg/kg/injection, schedule: Q01DX009 (ip), vehicle: saline sonified 93 % of control | [1] 97 % of control | dose: 200.0 mg/kg/injection, schedule: Q01DX009 (ip), vehicle: saline sonified 114 % of control | [2] 93 % of control | dose: 400.0 mg/kg/injection, schedule: Q01DX009 (ip), vehicle: saline sonified 101 % of control | [3] 93 % of control
